Experimental data taken from PubChem BioAssay AID256 (DTP/NCI, 2004).
“And” between values parts separate entries of the source, which are not always exact repeats. Equal values may be shown once. Toxic doses and inconclusive results are not listed. The calls were made as follows: active = survival T/C of 150% or more; inactive = T/C below 125% in these data.

System: CD2F1 mice, L1210 leukemia ip, survival T/C
Test: NCI In Vivo Anticancer Drug Screen. Data for tumor model L1210 Leukemia (intraperitoneal) in CD2F1 (CDF1) mice
Settings: higher = longer survival
How it was run: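 Tumor-bearing mice (transplanted tumor) were split into treated and vehicle control groups, and the measured endpoint of each treated group was divided by that of its vehicle controls.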

[1] = endpoint: mean survival time, dose: 100.0 mg/kg/injection, schedule: Q04DX003 (ip), vehicle: saline with Tween-80
[2] = endpoint: mean survival time, dose: 200.0 mg/kg/injection, schedule: Q04DX003 (ip), vehicle: saline with Tween-80
[3] = endpoint: mean survival time, dose: 400.0 mg/kg/injection, schedule: Q04DX003 (ip), vehicle: saline with Tween-80
[4] = endpoint: mean survival time, dose: 100.0 mg/kg/injection, schedule: Q01DX009 (ip), vehicle: saline with Tween-80
[5] = endpoint: mean survival time, dose: 200.0 mg/kg/injection, schedule: Q01DX009 (ip), vehicle: saline with Tween-80
[6] = endpoint: mean survival time, dose: 400.0 mg/kg/injection, schedule: Q01DX009 (ip), vehicle: saline with Tween-80

Measured: T/C

C=CC(=O)Nc1ccccc1
inactive: endpoint: mean survival time, dose: 50.0 mg/kg/injection, schedule: Q04DX002 (ip), vehicle: Klucel (hydroxypropylcellulose) (HPC) 94 % of control | endpoint: mean survival time, dose: 100.0 mg/kg/injection, schedule: Q04DX002 (ip), vehicle: Klucel (hydroxypropylcellulose) (HPC) 94 % of control | [1] 96 % of control | endpoint: mean survival time, dose: 200.0 mg/kg/injection, schedule: Q04DX002 (ip), vehicle: Klucel (hydroxypropylcellulose) (HPC) 97 % of control | [2] 96 % of control | [3] 97 % of control

Cc1ccc(S(=O)C(c2ccccc2)C(c2ccccc2)C(C)O)cc1 (stereo not drawn)
inactive: [1] 90 % of control | [2] 94 % of control | [3] 90 % of control

COc1ccc(C(C)=O)cc1C=O
inactive: [4] 87 % of control | [1] 97 % of control | [5] 92 % of control | [2] 104 % of control | [6] 90 % of control | [3] 102 % of control

CN(C)S(=O)(=O)Oc1ccccc1[N+](=O)[O-]
inactive: [4] 100 % of control | [5] 97 % of control | [6] 98 % of control

CN1CCCC(OC(=O)C(c2ccccc2)C2(O)CCCC2)C1 (stereo not drawn)
inactive: endpoint: mean survival time, dose: 75.0 mg/kg/injection, schedule: Q01DX001 (ip), vehicle: saline 98 % of control

C=C1C(O)C2(O)OCC34C(CC5C(C)=CC(=O)C(O)C5(C)C23)OC(=O)C(OC(=O)C/C=C/CCCCCCCC)C14 (stereo not drawn)
inactive: endpoint: median survival time, dose: 2.0 mg/kg/injection, schedule: Q01DX005 (ip), vehicle: saline + alcohol 113 % of control | endpoint: median survival time, dose: 4.0 mg/kg/injection, schedule: Q01DX005 (ip), vehicle: saline + alcohol 119 % of control | endpoint: median survival time, dose: 8.0 mg/kg/injection, schedule: Q01DX005 (ip), vehicle: saline + alcohol 119 % of control and 124 % of control

NNC(=O)c1ccc(N)cc1
inactive: endpoint: mean survival time, dose: 100.0 mg/kg/injection, schedule: Q04DX003 (ip), vehicle: Klucel (hydroxypropylcellulose) (HPC) 95 % of control

CCOC(=O)c1ccc(N(CC)CC)cc1
inactive: [4] 95 % of control | [1] 104 % of control | [5] 92 % of control | [2] 98 % of control | [6] 95 % of control | [3] 94 % of control

O=P(N1CC1)(N1CC1)N1CC1
inactive: endpoint: mean survival time, dose: 2.0 mg/kg/injection, schedule: Q03DX003 (ip), vehicle: saline 110 % of control | endpoint: mean survival time, dose: 16.0 mg/kg/injection, schedule: Q01DX009 (ip), vehicle: saline 96 % of control

O=C(Nc1ccc(Cl)c(Cl)c1)C(Cl)(Cl)Cl
inactive: endpoint: mean survival time, dose: 100.0 mg/kg/injection, schedule: Q01DX009 (ip), vehicle: saline + alcohol 91 % of control | endpoint: mean survival time, dose: 200.0 mg/kg/injection, schedule: Q01DX009 (ip), vehicle: saline + alcohol 89 % of control | endpoint: mean survival time, dose: 400.0 mg/kg/injection, schedule: Q01DX009 (ip), vehicle: saline + alcohol 91 % of control

N=c1ccn(C2OC(CO)C(O)C2O)c(=O)n1O (stereo not drawn)
active: endpoint: mean survival time, dose: 16.0 mg/kg/injection, schedule: Q01DX008 (ip), vehicle: saline 156 % of control | endpoint: mean survival time, dose: 32.0 mg/kg/injection, schedule: Q01DX008 (ip), vehicle: saline 161 % of control | endpoint: mean survival time, dose: 64.0 mg/kg/injection, schedule: Q01DX008 (ip), vehicle: saline 170 % of control | endpoint: mean survival time, dose: 128.0 mg/kg/injection, schedule: Q01DX008 (ip), vehicle: saline 176 % of control | endpoint: mean survival time, dose: 128.0 mg/kg/injection, schedule: Q01DX008 (oral), vehicle: saline 156 % of control | endpoint: mean survival time, dose: 128.0 mg/kg/injection, schedule: Q01DX009 (ip), vehicle: saline 206 % of control | endpoint: mean survival time, dose: 256.0 mg/kg/injection, schedule: Q01DX009 (ip), vehicle: saline 214 % of control | endpoint: mean survival time, dose: 512.0 mg/kg/injection, schedule: Q01DX009 (oral), vehicle: saline 167 % of control | endpoint: mean survival time, dose: 512.0 mg/kg/injection, schedule: Q04DX003 (ip), vehicle: saline 153 % of control | endpoint: mean survival time, dose: 1024.0 mg/kg/injection, schedule: Q01DX009 (oral), vehicle: saline 210 % of control | endpoint: mean survival time, dose: 1024.0 mg/kg/injection, schedule: Q04DX003 (ip), vehicle: saline 155 % of control | endpoint: mean survival time, dose: 1024.0 mg/kg/injection, schedule: Q04DX003 (oral), vehicle: saline 155 % of control
inactive: endpoint: mean survival time, dose: 16.0 mg/kg/injection, schedule: Q01DX008 (oral), vehicle: saline 110 % of control | endpoint: mean survival time, dose: 128.0 mg/kg/injection, schedule: Q01DX001 (ip), vehicle: saline 101 % of control | endpoint: mean survival time, dose: 128.0 mg/kg/injection, schedule: Q01DX001 (oral), vehicle: saline 96 % of control | endpoint: mean survival time, dose: 128.0 mg/kg/injection, schedule: Q04DX003 (oral), vehicle: saline 103 % of control | endpoint: mean survival time, dose: 256.0 mg/kg/injection, schedule: Q01DX001 (ip), vehicle: saline 102 % of control | endpoint: mean survival time, dose: 256.0 mg/kg/injection, schedule: Q01DX001 (oral), vehicle: saline 100 % of control | endpoint: mean survival time, dose: 256.0 mg/kg/injection, schedule: Q04DX003 (oral), vehicle: saline 110 % of control | endpoint: mean survival time, dose: 512.0 mg/kg/injection, schedule: Q01DX001 (ip), vehicle: saline 111 % of control | endpoint: mean survival time, dose: 512.0 mg/kg/injection, schedule: Q01DX001 (oral), vehicle: saline 103 % of control | endpoint: mean survival time, dose: 512.0 mg/kg/injection, schedule: Q01DX009 (ip), vehicle: saline 120 % of control | endpoint: mean survival time, dose: 1024.0 mg/kg/injection, schedule: Q01DX001 (ip), vehicle: saline 108 % of control | endpoint: mean survival time, dose: 1024.0 mg/kg/injection, schedule: Q01DX001 (oral), vehicle: saline 122 % of control | endpoint: mean survival time, dose: 1024.0 mg/kg/injection, schedule: Q01DX009 (ip), vehicle: saline 116 % of control

CCOC(=O)C(C(=S)NC)=S(C)C
inactive: endpoint: mean survival time, dose: 100.0 mg/kg/injection, schedule: Q01DX001 (ip), vehicle: other 92 % of control | endpoint: mean survival time, dose: 200.0 mg/kg/injection, schedule: Q01DX001 (ip), vehicle: other 88 % of control | endpoint: mean survival time, dose: 400.0 mg/kg/injection, schedule: Q01DX001 (ip), vehicle: other 105 % of control

O=C(Nc1ccc2c3c(cccc13)CC2)c1ccccc1
inactive: [1] 95 % of control | [2] 97 % of control | [3] 92 % of control

OCc1ccc[n+](CCc2c[nH]c3ccccc23)c1
inactive: endpoint: mean survival time, dose: 50.0 mg/kg/injection, schedule: Q01DX009 (ip), vehicle: saline with Tween-80 104 % of control | [4] 95 % of control

CCCCOC(=O)c1cc([N+](=O)[O-])c(Sc2ncnc3nc[nH]c23)c([N+](=O)[O-])c1
inactive: endpoint: mean survival time, dose: 0.63 mg/kg/injection, schedule: Q01DX005 (ip), vehicle: other 106 % of control | endpoint: mean survival time, dose: 1.25 mg/kg/injection, schedule: Q01DX005 (ip), vehicle: other 104 % of control | endpoint: mean survival time, dose: 2.5 mg/kg/injection, schedule: Q01DX005 (ip), vehicle: other 106 % of control | endpoint: mean survival time, dose: 5.0 mg/kg/injection, schedule: Q01DX005 (ip), vehicle: other 106 % of control | endpoint: mean survival time, dose: 10.0 mg/kg/injection, schedule: Q01DX005 (ip), vehicle: other 114 % of control | endpoint: mean survival time, dose: 15.0 mg/kg/injection, schedule: Q01DX005 (ip), vehicle: other 120 % of control

C=C(Br)CNC(=O)C(=O)OCC
inactive: [1] 105 % of control

CCCCCCCC(=O)Nc1c(C)cc(C)cc1C
inactive: [4] 91 % of control | [5] 98 % of control | [6] 92 % of control

COc1ccc(-n2cnc3c(=O)[nH]c(N)nc32)cc1
inactive: endpoint: mean survival time, dose: 25.0 mg/kg/injection, schedule: Q01DX001 (ip), vehicle: saline with Tween-80 95 % of control | endpoint: mean survival time, dose: 50.0 mg/kg/injection, schedule: Q01DX001 (ip), vehicle: saline with Tween-80 92 % of control | endpoint: mean survival time, dose: 100.0 mg/kg/injection, schedule: Q01DX001 (ip), vehicle: saline with Tween-80 95 % of control

Cc1nc(N)nc2c1CCC(=O)N2C
inactive: endpoint: mean survival time, dose: 50.0 mg/kg/injection, schedule: Q04DX002 (ip), vehicle: saline with Tween-80 97 % of control | endpoint: mean survival time, dose: 100.0 mg/kg/injection, schedule: Q01DX001 (ip), vehicle: Klucel (hydroxypropylcellulose) (HPC) 102 % of control | endpoint: mean survival time, dose: 100.0 mg/kg/injection, schedule: Q04DX002 (ip), vehicle: saline with Tween-80 97 % of control | endpoint: mean survival time, dose: 200.0 mg/kg/injection, schedule: Q01DX001 (ip), vehicle: Klucel (hydroxypropylcellulose) (HPC) 90 % of control | endpoint: mean survival time, dose: 200.0 mg/kg/injection, schedule: Q04DX002 (ip), vehicle: saline with Tween-80 97 % of control

CC(=O)CC(=O)C(F)(F)F.CC(=O)CC(=O)C(F)(F)F.[O]=[V]
inactive: endpoint: mean survival time, dose: 3.8 mg/kg/injection, schedule: Q01DX009 (ip), vehicle: saline with Tween-80 95 % of control | endpoint: mean survival time, dose: 7.5 mg/kg/injection, schedule: Q01DX009 (ip), vehicle: saline with Tween-80 93 % of control | endpoint: mean survival time, dose: 15.0 mg/kg/injection, schedule: Q01DX009 (ip), vehicle: saline with Tween-80 92 % of control
